The numbers were not newly measured in publication PMC3534868 (Pharmaceutical biology, 2011), which cites them from elsewhere.

Like-named read-outs stand apart in the source and are kept apart here.

In data set [1] the test system is KB (human oral epidermoid carcinoma). As to conditions: KB cells; for KB IC50: ref Zhang et al., 2004.
Data set [2] deals with malaria parasite (chloroquine-sensitive and chloroquine-resistant strains). As to conditions: for in vitro activities against the malaria parasites: 2005.
The test system of another data set is Col-2. As to conditions: Col-2 cells; ref Zhang et al., 2004.
In another data set the test system is LNCaP (prostate). The conditions noted are these: LNCaP cells; ref Zhang et al., 2004.
The test system of a further data set is LU-1 (lung). As to conditions: LU-1 cells; ref Zhang et al., 2004.
The next data set deals with HUVEC. The conditions noted are these: HUVEC cells; ref Zhang et al., 2004.
A further data set relates to hTERT. The conditions noted are these: hTERT cells; ref Zhang et al., 2004.

Regarding Naucleaorine [SLA7018-K006], the “KB ED50” value in data set [1] (ref He et al., 2005) was 20 µg/mL. The “D6 IC50” value in the data set on P. falciparum D6 (ref He et al., 2005) was 3.61 ± 0.595 µg/mL. Besides, the “W2 IC50” value in the data set with P. falciparum W2 (ref He et al., 2005) is 4.192 ± 0.008 µg/mL. The “in vitro activities against the malaria parasites” value in data set [2] (ref He et al.) was “showed in vitro activities”.

In the case of epi-Methoxy-naucleaorine [SLA7018-K002], the “KB ED50” value in data set [1] (ref He et al., 2005) is greater than 20 µg/mL. The “D6 IC50” value in the data set on P. falciparum D6 (ref He et al., 2005) is 6.535 ± 0.151 µg/mL. In addition, the “W2 IC50” value with P. falciparum W2 (ref He et al., 2005) is 6.979 ± 0.008 µg/mL. In data set [2] (ref He et al.), the “in vitro activities against the malaria parasites” value is recorded as “showed in vitro activities”.

Turning to `C=C(C)[C@@H]1CC[C@]2(C(=O)O)CC[C@]3(C)[C@H](CC[C@@H]4[C@@]5(C)CC[C@H](OC(=O)/C=C/c6ccc(O)c(O)c6)C(C)(C)[C@@H]5CC[C@]43C)[C@@H]12` [SLA7062-K001, Betulinic acid 3β-caffeate], the “KB ED50” value in [1] (ref Ma et al., 2008) is 2.5 µg/mL. The “D6 IC50” value in the data set on P. falciparum D6 (ref Ma et al., 2008) is 0.87 µg/mL. For the same compound, the “W2 IC50” value in the data set on P. falciparum W2 (ref Ma et al., 2008) is 0.607 µg/mL. Further, the “in vitro antimalarial activity” value in [2] (chloroquine-sensitive and chloroquine-resistant strains, ref Ma et al., 2008) is “in vitro-active”.

Consider `C=CC(/C=C\c1ccc(O)cc1)c1ccc(O)c(OC)c1` (stereo not drawn) [SLA7037-K006, 3″-Methoxy-nyasol], for which the “KB IC50” value in data set [1] was 9.0 µg/mL. In addition, the “Col-2 IC50” value in the data set on Col-2 was 6.3 µg/mL. For the same compound, in the data set on LNCaP (prostate), the “LNCaP IC50” value was 6.6 µg/mL. Also, the “LU-1 IC50” value in the data set with LU-1 (lung) is 4.5 µg/mL. The “HUVEC IC50” value in the data set on HUVEC is 6.7 µg/mL. Moreover, the “hTERT IC50” value in the data set with hTERT is 1.2 µg/mL.

`C=C(C)[C@@H]1CC[C@]2(C(=O)O)CC[C@]3(C)[C@H](CC[C@@H]4[C@@]5(C)CC[C@H](O)C(C)(C)[C@@H]5CC[C@]43C)[C@@H]12` [SLA7062-K001a, Betulinic acid]: in data set [1] (ref Ma et al., 2008), the “KB ED50” value was greater than 40 µg/mL. Also, the “D6 IC50” value in the data set on P. falciparum D6 (ref Ma et al., 2008) was 3.696 µg/mL. Besides, in the data set with P. falciparum W2 (ref Ma et al., 2008), the “W2 IC50” value was 3.776 µg/mL.

With Gongroneside A [SLA7530-K001], the “KB ED50” value in [1] (ref Libman et al., 2008) was greater than 20 µg/mL. The “D6 IC50” value with P. falciparum D6 (ref Libman et al., 2008) was 2.33 µg/mL. Besides, in the data set with P. falciparum W2 (ref Libman et al., 2008), the “W2 IC50” value is 2.02 µg/mL. The “in vitro antimalarial activity” value in data set [2] (both strains of the malaria parasites, ref Libman et al., 2008) was “in vitro-active”.

`C[C@H]1CC[C@@]2(OC1)O[C@H]1C[C@H]3[C@@H]4CC[C@@H]5C[C@@H](O[C@@H]6O[C@H](CO[C@@H]7OC[C@H](O)[C@H](O)[C@H]7O)[C@@H](O[C@@H]7OC[C@H](O)[C@H](O)[C@H]7O)[C@H](O)[C@H]6O[C@@H]6O[C@H](CO)[C@@H](O)[C@H](O)[C@H]6O)CC[C@]5(C)[C@H]4CC[C@]3(C)[C@H]1[C@@H]2C` [SLA7037-K003, Asparacoside]: the “KB IC50” value in [1] was 4.8 µg/mL. Moreover, the “Col-2 IC50” value in the data set with Col-2 is 5.4 µg/mL. Further, in the data set on LNCaP (prostate), the “LNCaP IC50” value was 10.1 µg/mL. For the same compound, the “LU-1 IC50” value in the data set with LU-1 (lung) was 4.2 µg/mL. In addition, the “HUVEC IC50” value in the data set with HUVEC is 4.1 µg/mL. For the same compound, the “hTERT IC50” value in the data set with hTERT is 4.3 µg/mL.

On to Rouremin [SLA7006-K005], for which the “KB ED50” value in data set [1] (ref He et al., 2006) was greater than 20 µg/mL. Besides, the “D6 IC50” value in the data set on P. falciparum D6 (ref He et al., 2006) was 4 µg/mL. Besides, in the data set with P. falciparum W2 (ref He et al., 2006), the “W2 IC50” value is 3.5 µg/mL. Besides, in data set [2] (ref He et al., 2006), the “in vitro antimalarial activity” value was “in vitro-active”.

On to `Oc1ccc(C#C/C=C/COc2ccc(O)cc2)cc1` [SLA7037-K010, Asparenydiol], for which, in [1], the “KB IC50” value is 2.4 µg/mL. Moreover, the “Col-2 IC50” value in the data set with Col-2 is greater than 20 µg/mL. For the same compound, the “LNCaP IC50” value in the data set with LNCaP (prostate) was greater than 20 µg/mL. The “LU-1 IC50” value in the data set with LU-1 (lung) is 19.8 µg/mL. Moreover, the “HUVEC IC50” value in the data set on HUVEC was greater than 20 µg/mL. The “hTERT IC50” value in the data set with hTERT is 0.2 µg/mL.

Turning to `COc1cc(OCC=CC#Cc2ccc(O)cc2)ccc1O` [SLA7037-K004, 3′-Methoxy-asparenydiol], the “KB IC50” value in data set [1] was 12.0 µg/mL. Moreover, in the data set on Col-2, the “Col-2 IC50” value is greater than 20 µg/mL. Besides, the “LNCaP IC50” value in the data set on LNCaP (prostate) is greater than 20 µg/mL. Also, the “LU-1 IC50” value in the data set on LU-1 (lung) is 19.7 µg/mL. Also, the “HUVEC IC50” value in the data set with HUVEC was greater than 20 µg/mL. In the data set on hTERT, the “hTERT IC50” value was 0.3 µg/mL.

For the compound `C=C(C)[C@@H]1CC[C@]2(C(=O)O)CC[C@]3(C)[C@H](CC[C@@H]4[C@@]5(C)CC[C@H](OC(=O)/C=C/c6ccc(OC(C)=O)c(OC(C)=O)c6)C(C)(C)[C@@H]5CC[C@]43C)[C@@H]12` [SLA7062-K001b, Betulinic acid 3β-bisacetylcaffeate], in data set [1] (ref Ma et al., 2008), the “KB ED50” value was 2.07 µg/mL. Besides, in the data set with P. falciparum D6 (ref Ma et al., 2008), the “D6 IC50” value was 0.48 µg/mL. For the same compound, the “W2 IC50” value with P. falciparum W2 (ref Ma et al., 2008) was 0.443 µg/mL.

As to `COc1cc([C@H](O[C@@H]2O[C@H](CO)[C@@H](O)[C@H](O)[C@H]2O)[C@H](CO)Oc2c(OC)cc(CCCO)cc2OC)ccc1O` [SLA7006-K008, Rourinoside], in data set [1] (ref He et al., 2006), the “KB ED50” value is greater than 20 µg/mL. For the same compound, the “D6 IC50” value in the data set on P. falciparum D6 (ref He et al., 2006) is 2.1 µg/mL. For the same compound, the “W2 IC50” value in the data set with P. falciparum W2 (ref He et al., 2006) was 1.2 µg/mL. The “in vitro antimalarial activity” value in data set [2] (ref He et al., 2006) was “in vitro-active”.

Consider “3″-Hydroxy-4″-methoxy-4″-dehyroxy-nyasol [SLA7037-K007]”, for which the “KB IC50” value in [1] is 9.0 µg/mL. Moreover, in the data set with Col-2, the “Col-2 IC50” value is 11.7 µg/mL. In addition, the “LNCaP IC50” value with LNCaP (prostate) was 11.6 µg/mL. For the same compound, the “LU-1 IC50” value in the data set with LU-1 (lung) was 7.2 µg/mL. Further, the “HUVEC IC50” value with HUVEC is 16.4 µg/mL. The “hTERT IC50” value in the data set with hTERT is 0.2 µg/mL.

On to `CC1(C)CC[C@]2(C(=O)O)CC[C@]3(C)C(=CC[C@@H]4[C@@]5(C)CC[C@H](O)C(C)(C)[C@@H]5CC[C@]43C)[C@@H]2C1` [SLA7018-K003, Oleanolic acid], for which the “KB ED50” value in [1] (ref He et al., 2005) was 21 µg/mL. Besides, the “D6 IC50” value with P. falciparum D6 (ref He et al., 2005) is 2.116 ± 0.308 µg/mL. The “W2 IC50” value in the data set on P. falciparum W2 (ref He et al., 2005) was 2.335 ± 0.013 µg/mL.

With Pinoresinol [SLA7062-K004], the “KB ED50” value in data set [1] (ref Ma et al., 2008) is greater than 40 µg/mL. For the same compound, in the data set on P. falciparum D6 (ref Ma et al., 2008), the “D6 IC50” value was 1.361 µg/mL. In addition, in the data set on P. falciparum W2 (ref Ma et al., 2008), the “W2 IC50” value was 3.15 µg/mL.

`C[C@@H]1CC[C@@]2(OC1)O[C@H]1C[C@H]3[C@@H]4CCC5=CC(=O)CC[C@]5(C)[C@H]4C[C@@H](O)[C@]3(C)[C@@]1(O)[C@@H]2C` [SLA7037-K001, Asparacosin A]: the “KB IC50” value in data set [1] was 10.7 µg/mL. Also, the “Col-2 IC50” value in the data set on Col-2 was greater than 20 µg/mL. The “LNCaP IC50” value in the data set with LNCaP (prostate) is greater than 20 µg/mL. Also, the “LU-1 IC50” value in the data set on LU-1 (lung) was greater than 20 µg/mL. In addition, in the data set on HUVEC, the “HUVEC IC50” value is greater than 20 µg/mL. Also, the “hTERT IC50” value in the data set with hTERT is greater than 20 µg/mL.

With `C[C@H]1[C@H](C)CC[C@]2(C(=O)O)CC[C@]3(C)C(=CC[C@@H]4[C@@]5(C)CC[C@@H](O)[C@@](C)(CO)[C@@H]5CC[C@]43C)[C@H]12` [SLA7018-K008, 3α,23-Dihydroxy-urs-12-en-28-oic acid], in data set [1] (ref He et al., 2005), the “KB ED50” value was greater than 20 µg/mL. The “D6 IC50” value with P. falciparum D6 (ref He et al., 2005) is 4.567 ± 0.702 µg/mL. Moreover, the “W2 IC50” value in the data set with P. falciparum W2 (ref He et al., 2005) was 6.006 ± 2.581 µg/mL.
